Experimental findings from PMC5560858, “A lectin receptor kinase as a potential sensor for extracellular nicotinamide adenine dinucleotide in Arabidopsis thaliana” (eLife, 2017) are described below.

For orientation: Kd means a measure of binding affinity in units of concentration.

In this experiment the target is T1, LecRK-I.8 (lectin receptor kinase-I.8, At5g60280) (Arabidopsis thaliana, UniProt Q9LSR9).
T1 construct: gene LECRK18; extracellular lectin domain (amino acids 23 to 283) fused to GFP (eLecRK-I.8-GFP)
T1 sequence (Q9LSR9 23-283): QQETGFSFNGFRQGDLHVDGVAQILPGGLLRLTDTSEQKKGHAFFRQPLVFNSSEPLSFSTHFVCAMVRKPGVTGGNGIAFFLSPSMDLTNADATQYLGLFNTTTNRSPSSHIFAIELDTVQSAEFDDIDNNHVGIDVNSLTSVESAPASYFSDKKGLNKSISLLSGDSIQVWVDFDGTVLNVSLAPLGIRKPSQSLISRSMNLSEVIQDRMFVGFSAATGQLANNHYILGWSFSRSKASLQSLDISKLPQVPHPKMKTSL
As to the kind of experiment: […]-NAD+ radioligand saturation binding to immunoprecipitated eLecRK-I.8-GFP; also competition, and binding to recombinant MBP-eLecRK-I.[…].

For `NC(=O)c1ccc[n+]([C@@H]2O[C@H](COP(=O)([O-])OP(=O)(O)OC[C@H]3O[C@@H](n4cnc5c(N)ncnc54)[C@H](O)[C@@H]3O)[C@@H](O)[C@H]2O)c1` [NAD+], the Kd was found to be 437 ± 105 nM.
